Measurements published in US10703740B2, “Substituted benzimidazoles, their preparation and their use as pharmaceuticals” (NEOMED Institute, priority 2015, dated 2020).
pIC50: −log10 of the molar value.

test system: human C-Myc transcription in MV-4-11 cells; experiment: Transcription of human C-Myc in human leukemic MV-4-11 cells (QuantiGene 2.0); format: cell-based; conditions: Homo sapiens, MV4-11, 4 h, inhibition of C-Myc mRNA, 4 hours treatment, read-out: IC50 MV-4-11 Cell
Method: The effect of compounds on transcription of human C-Myc gene is monitored in human B-myelomonocytic leukemia cell line MV-4-11 (from American Type Culture Collection (ATCC), Manassas, Va., USA) using QuantiGene 2.0 assay kit (Affymetrix, Santa Clara, Calif., USA).
Typically, 8,000 MV-4-11 cells are plated in sterile 96-well plates (Costar #3598 from Fisher Scientific Canada, Ottawa, Ontario, Canada) in Iscove's medium supplemented with 10% fetal bovine serum, glutamine (2 mM), and penicillin (100 I.U.) and streptomycin (100 μg/mL) (all from Wisent Inc., St. Bruno, Quebec, Canada). Compounds are dissolved in DMSO at 30 mM. A series of 1:3 dilutions are first made in DMSO, and further 1:100 dilutions are made in serum-containing cell culture media. The final concentration of DMSO is 0.1% in cell culture media. After cells are treated with various concentrations of test compound for 4 hours, cells are lysed using Quantigene 2.0 sample processing kit (# QS0100). C-Myc mRNA is detected using a QuantiGene 2.0 assay kit (# QS0009) with gene-specific probe to human C-Myc (# SA-50182) following the manufacturer's recommendations. Luminescene signals are read on Flexstation II microplate reader (Molecular Devices, Sunnyvale, Calif., USA).

Row | pIC50 | SMILES
1 | 6.09 | COC[C@H](C)n1c(C2CC2)nc2ccc(-c3cc(C)c(=O)n(C)c3)cc21 [Compound 17, 5-[2-cyclopropyl-3-[(1S)-2-methoxy-1-methylethyl]benzimidazol-5-yl]-1,3-dimethyl pyridin-2-one]
2 | 7.06 | Cc1cc(-c2ccc3nc([C@@H]4CCCO4)n(CCOC(F)(F)F)c3c2)cn(C)c1=O (stereo in doubt) [Compound 30b, 1,3-dimethyl-5-[2-tetrahydrofuran-2-yl-3-[2-(trifluoromethoxy)ethyl]benzimidazol-5-yl]pyridin-2-one]
3 | 6.77 | COC[C@H](C)n1c(C2CCOCC2)nc2ccc(-c3cc(C)c(=O)n(C)c3)cc21 [Compound 18, 5-[3-[(1S)-2-methoxy-1-methylethyl]-2-tetrahydropyran-4-yl-benzimidazol-5-yl]-1,3-dimethylpyridin-2-one]
4 | 6.66 | COC[C@H](C)n1c(C2CCC(F)(F)CC2)nc2ccc(-c3cc(C)c(=O)n(C)c3)cc21 [Compound 56, (S)-5-(2-(4,4-difluorocyclohexyl)-1-(1-methoxypropan-2-yl)-1H-benzo[d]imidazol-6-yl)-1,3-dimethylpyridin-2(1H)-one]
5 | 6.77 | CCO[C@H](C)Cn1c(C2CC(F)(F)C2)nc2ccc(-c3cc(C)c(=O)n(C)c3)cc21 [Compound 54, (R)-5-(2-(3,3-difluorocyclobutyl)-1-(2-ethoxypropyl)-1H-benzo[d]imidazol-6-yl)-1,3-dimethylpyridin-2(1H)-one]
6 | 7.57 | Cc1cc(-c2ccc3nc(CC4CCOCC4)n(CCOC(F)(F)F)c3c2)cn(C)c1=O [Compound 43, 1,3-dimethyl-5-(2-((tetrahydro-2H-pyran-4-yl)methyl)-1-(2-(trifluoromethoxy)ethyl)-1H-benzo[d]imidazol-6-yl)pyridin-2(1H)-one]
7 | 7.08 | CCO[C@H](C)Cn1c(C2CCOCC2)nc2ccc(-c3cc(C)c(=O)n(C)c3)cc21 [Compound 39, (R)-5-(1-(2-ethoxypropyl)-2-(tetrahydro-2H-pyran-4-yl)-1H-benzo[d]imidazol-6-yl)-1,3-dimethylpyridin-2(1H)-one]
8 | 7.12 | CCO[C@@H](C)Cn1c(C2CC(F)(F)C2)nc2ccc(-c3cc(C)c(=O)n(C)c3)cc21 [Compound 53, (S)-5-(2-(3,3-difluorocyclobutyl)-1-(2-ethoxypropyl)-1H-benzo[d]imidazol-6-yl)-1,3-dimethylpyridin-2(1H)-one]
9 | 7.29 | CCOC[C@@H](C)n1c(C2CC(F)(F)C2)nc2ccc(-c3cc(C)c(=O)n(C)c3)cc21 [Compound 52, (R)-5-(2-(3,3-difluorocyclobutyl)-1-(1-ethoxypropan-2-yl)-1H-benzo[d]imidazol-6-yl)-1,3-dimethylpyridin-2(1H)-one]
10 | 6.06 | Cn1cc(-c2ccc3nc(C4CC4)n(CCOC(F)(F)F)c3c2)cc(C2CC2)c1=O [Compound 19, 3-cyclopropyl-5-[2-cyclopropyl-3-[2-(trifluoromethoxy)ethyl]benzimidazol-5-yl]-1-methylpyridin-2-one]
11 | 7.68 | COC1CC(c2nc3ccc(-c4cc(C)c(=O)n(C)c4)cc3n2CCOCC(F)(F)F)C1 (centres unmarked) [Compound 62, 5-[2-(3-methoxycyclobutyl)-1-(2-(2,2,2-trifluoroethoxy)ethyl)-1H-benzo[d]imidazol-6-yl]-1,3-dimethylpyridin-2(1H)-one]
12 | 7.14 | COC[C@@H](C)n1c(C2CCC(F)(F)CC2)nc2ccc(-c3cc(C)c(=O)n(C)c3)cc21 [Compound 57, (R)-5-(2-(4,4-difluorocyclohexyl)-1-(1-methoxypropan-2-yl)-1H-benzo[d]imidazol-6-yl)-1,3-dimethylpyridin-2(1H)-one]
13 | 6.80 | COC[C@@H](C)n1c(CC2CCOCC2)nc2ccc(-c3cc(C)c(=O)n(C)c3)cc21 [Compound 50, (R)-5-(1-(1-methoxypropan-2-yl)-2-((tetrahydro-2H-pyran-4-yl)methyl)-1H-benzo[d]imidazol-6-yl)-1,3-dimethylpyridin-2(1H)-one]
14 | 6.31 | COCCn1c(Cc2ccccc2)nc2ccc(-c3cc(C)c(=O)n(C)c3)cc21 [Compound 37, 5-(2-benzyl-1-(2-methoxyethyl)-1H-benzo[d]imidazol-6-yl)-1,3-dimethylpyridin-2(1H)-one]
15 | 6.08 | COC(C)Cn1cnc2ccc(-c3cc(C)c(=O)n(C)c3)cc21 (centres unmarked) [Compound 22a, 5-[3-(2-methoxypropyl)benzimidazol-5-yl]-1,3-dimethylpyridin-2-one]
16 | 7.74 | Cc1cc(-c2ccc3nc(C4CCOCC4)n([C@H](C)COC(C)C)c3c2)cn(C)c1=O [Compound 66, (R)-5-(1-(1-isopropoxypropan-2-yl)-2-(tetrahydro-2H-pyran-4-yl)-1H-benzo[d]imidazol-6-yl)-1,3-dimethylpyridin-2(1H)-one]
17 | 6.77 | COCCn1c(CC2CCOCC2)nc2ccc(-c3cc(C)c(=O)n(C)c3)cc21 [Compound 42, 5-(1-(2-methoxyethyl)-2-((tetrahydro-2H-pyran-4-yl)methyl)-1H-benzo[d]imidazol-6-yl)-1,3-dimethylpyridin-2(1H)-one]
18 | 7.01 | COCCn1c(C2CCC(F)(F)CC2)nc2ccc(-c3cc(C)c(=O)n(C)c3)cc21 [Compound 44, 5-(2-(4,4-difluorocyclohexyl)-1-(2-methoxyethyl)-1H-benzo[d]imidazol-6-yl)-1,3-dimethylpyridin-2(1H)-one]
19 | 7.57 | CCOC[C@@H](C)n1c(C2CCOCC2)nc2ccc(-c3cc(C)c(=O)n(C)c3)cc21 [Compound 47, (R)-5-(1-(1-ethoxypropan-2-yl)-2-(tetrahydro-2H-pyran-4-yl)-1H-benzo[d]imidazol-6-yl)-1,3-dimethylpyridin-2(1H)-one]
20 | 6.80 | Cc1cc(-c2ccc3nc(C4CC4)n(CCOCC(F)(F)F)c3c2)cn(C)c1=O [Compound 45, 5-(2-cyclopropyl-1-(2-(2,2,2-trifluoroethoxy)ethyl)-1H-benzo[d]imidazol-6-yl)-1,3-dimethylpyridin-2(1H)-one]
21 | 7.28 | CCO[C@@H](C)Cn1c(C2CCC(F)(F)CC2)nc2ccc(-c3cc(C)c(=O)n(C)c3)cc21 [Compound 55, (S)-5-(2-(4,4-difluorocyclohexyl)-1-(2-ethoxypropyl)-1H-benzo[d]imidazol-6-yl)-1,3-dimethylpyridin-2(1H)-one]
22 | 6.66 | Cc1cc(-c2ccc3nc(C4CCOCC4)n(CCC(F)(F)F)c3c2)cn(C)c1=O [Compound 34, 1,3-dimethyl-5-[2-tetrahydropyran-4-yl-3-(3,3,3-trifluoropropyl)benzimidazol-5-yl]pyridin-2-one]
23 | 6.80 | CO[C@H](C)Cn1c(C2CCC(F)(F)CC2)nc2ccc(-c3cc(C)c(=O)n(C)c3)cc21 [Compound 58, (R)-5-(2-(4,4-difluorocyclohexyl)-1-(2-methoxypropyl)-1H-benzo[d]imidazol-6-yl)-1,3-dimethylpyridin-2(1H)-one]
24 | 7.28 | Cn1cc(-c2ccc3nc(C4CCOCC4)n(CCOC(F)(F)F)c3c2)cc(Cl)c1=O [Compound 36, 3-chloro-1-methyl-5-[2-tetrahydropyran-4-yl-3-[2-(trifluoromethoxy)ethyl]benzimidazol-5-yl]pyridin-2-one]
25 | 7.66 | Cc1cc(-c2ccc3nc(C4CCOCC4)n(CCOC(C)C)c3c2)cn(C)c1=O [Compound 49, 5-(1-(2-isopropoxyethyl)-2-(tetrahydro-2H-pyran-4-yl)-1H-benzo[d]imidazole-6-yl)-1,3-dimethylpyridin-2(1H)-one]
26 | 6.62 | COCCn1c(C2CCCCC2)nc2ccc(-c3cc(C)c(=O)n(C)c3)cc21 [Compound 38, 5-(2-cyclohexyl-1-(2-methoxyethyl)-1H-benzo[d]imidazol-6-yl)-1,3-dimethylpyridin-2(1H)-one]
27 | 6.62 | CNc1cc(-c2ccc3nc(C4CC4)n(CCOC(F)(F)F)c3c2)cn(C)c1=O [Compound 20, 5-[2-cyclopropyl-3-[2-(trifluoromethoxy)ethyl]benzimidazol-5-yl]-1-methyl-3-(methylamino)pyridin-2-one]
28 | 7.04 | Cc1cc(-c2ccc3nc(C4CC(F)(F)C4)n(CCOC(F)(F)F)c3c2)cn(C)c1=O [Compound 27, 5-[2-(3,3-difluorocyclobutyl)-3-[2-(trifluoromethoxy)ethyl]benzimidazol-5-yl]-1,3-dimethylpyridin-2-one]
29 | 6.64 | COC[C@@H](C)n1c(C(F)(F)F)nc2ccc(-c3cc(C)c(=O)n(C)c3)cc21 [Compound 26, 5-[3-[(1R)-2-methoxy-1-methyl-ethyl]-2-(trifluoromethyl)benzimidazol-5-yl]-1,3-dimethylpyridin-2-one]

same assay, conditions: inhibition of C-Myc mRNA, 4 hours treatment, read-out: IC50 MV-4-11 Cell

Row | pIC50 | SMILES
30 | 6.74 | COC(C)Cn1c(C2CCOCC2)nc2ccc(-c3cc(C)c(=O)n(C)c3)cc21 (single isomer, unassigned) [Compound 35a, 5-[3-(2-methoxypropyl)-2-tetrahydropyran-4-yl-benzimidazol-5-yl]-1,3-dimethyl pyridin-2-one]
31 | 6.23 | COC(C)Cn1c(C)nc2ccc(-c3cc(C)c(=O)n(C)c3)cc21 (centres unmarked) [Compound 21b, 5-[3-(2-methoxypropyl)-2-methylbenzimidazol-5-yl]-1,3-dimethylpyridin-2-one]
32 | 6.14 | COC(C)Cn1c(C2CC2)nc2ccc(-c3cc(C)c(=O)n(C)c3)cc21 (single isomer, unassigned) [Compound 23b, 5-[2-cyclopropyl-3-(2-methoxypropyl)benzimidazol-5-yl]-1,3-dimethylpyridin-2-one]
